Tests used:
CHO cells = assay: Cell signaling analysis: tyrosine phosphorylation in CHO cells; format: cell-based, Chinese Hamster; details: for intracellular tyrosine phosphorylation: CHO cells, data not shown
Experimental: CHO cultures were grown as described above for PC12 cells. The cultures were divided into two groups and different compounds were added, followed by a period of incubation of from 1 to 30 minutes. Thus one CHO culture was incubated with 5 μM of 1,3-cyclic propandiol phosphate-2-methylamino at 37° C., the control being a similar CHO culture incubated with 1,3-cyclic glycerphosphate under the same conditions. […] In particular it was detected in a series of proteins with molecular weight of ≈35 kDa, ≈45 kDa, ≈60-70 kDa. as shown in FIG. 1.

PC12 cells [1] = assay: Induction of neuronal outgrowth / neuronal differentiation in PC-12 cells; format: cell-based, rat; details: for neuronal differentiation / axonal outgrowth: data not shown; for neural outgrowth: 5 μM, after 8 days, microscope, FIG. 2
Experimental: (§1) In the presence of nerve growth factor these cells differentiate to neuronal cells. PC12 cells originated from rat pheochromocytoma were grown as monolayers in Eagle's medium (EM) supplemented with 10% fetal calf serum, 50 μg/ml gentamicin and 5 mM glutamine, in a humidified incubator buffered with 5% CO2, at 37° C. The culture medium is changed every four days and the cells are passaged every eight days and performed confluent monolayers (1.5×10^6 in a 10 cm plate or 10^5 cells per well in 24 wells plate). PC12 cells are originally round cells which, following several days in the presence of nerve growth factor (NGF) process nerves. Upon withdrawal of the NGF, the nerves retract and a process of apoptosis is initiated in the cells.
PC12 cells were grown in culture as explained above. The cells were divided into two groups and different compounds were added. To the first were added 5 μM 1,3-cyclic propandiol phosphate-5-caproylamido, while as a control to the second portion was added NGF. After a period of 8 days the two groups of PC12 cells were inspected by microscope.

Rat hippocampal neurons = assay: Neuronal morphology of cultured hippocampal neurons (stage 3); format: cell-based; details: three days
Experimental: Rat hippocampal neurons were cultured at low density in defined medium as described previously (Brann et al., 2002, J Bio Chem 277(12): 9812-9818), with slight modifications. Briefly, the dissected hippocampi of embryonic day 18 rats were dissociated by trypsinization (0.25% w/v, for 15 min at 37° C.). The tissue was washed in Mg^2+/Ca^2+-free Hanks' balanced salt solution (Invitrogen) and dissociated by repeated passage through a constricted Pasteur pipette. Cells were plated in minimal essential medium with 10% horse serum at a density of 25,000 cells per 13-mm glass cover slips that had been precoated with poly-L-lysine (1 mg/ml). After 2-4 hr, cover slips were transferred into 24-well plates (Nunc), containing B27 supplemented Neurobasal medium (Brewer, G. et al., 1993, J Neurosci Res 35: 567-576), and cultures were maintained in this defined medium throughout the experiment.
For morphological analysis, cover slips were removed from the 24-well plates on the 3rd day of culture. Neurons were fixed in 1% (v/v) glutaraldehyde in phosphate-buffered-saline for 20 min at 37° C., and mounted for microscopic examination in 50% glycerol in phosphate-buffered-saline. Neurons were examined by phase contrast microscopy using an Achroplan 32x/0.4 n.a. phase 2 objective of a Zeiss Axiovert 35 microscope. Neuronal growth was analyzed based on established developmental criteria of cultured hippocampal neurons (Schwarz et al., 1995, J Bio Chem 270(18): 10990-10998; Brann et al., 1999, J Neurosci 19(19): 8199-8206) as follows: (i) Only neurons at stage 3 were analyzed in this study. […] (iii) Only those cells in which the whole axon plexus could be unambiguously delineated were measured. (iv) The number of axonal branch points per cell were measured. […]
Images of neurons were acquired using NIH image (version 1.62) software. The analyze mode was set to a proportional ratio scale of pixel to μm, the outline of the neuron was copied using the freehand line tool, and the line length measured and analyzed according to the morphological criteria outlined above. […]

PC12 cells [2] = assay: Rescue of PC12 cells from NGF deprivation (nerve rescue); format: cell-based, rat; details: data not shown
Experimental: as §1
Similar effects were observed (data not shown) for the following compounds. […] 2-Benzyloxy 1,3-chloropropanediol phosphate (Example 16 above) was dissolved in ethanol and from there introduced by 1:1000 dilution into PC12 cultures.

| Molecule | intracellular tyrosine phosphorylation (CHO cells) | neuronal differentiation / axonal outgrowth (PC12 cells [1]) | also measured |
| --- | --- | --- | --- |
| 2-caproimido 1,3-chloropropanediol phosphate [Example 17] | induced tyrosine phosphorylation | neuronal differentiation |  |
| CCCCCC(=O)NC1COP(=O)(O)OC1 (stereo not shown) [Example 4, 1,3-cyclic propandiol phosphate-5-caproylamido] |  |  | neural outgrowth (PC12 cells [1]): promoted neural outgrowth |
| CNC1COP(=O)(O)OC1 (stereo not shown) [Example 7, 1,3-cyclic propandiol phosphate-2-methylamino] |  |  | exposure time after which augmented tyrosine phosphorylation was noticed (CHO cells; CHO culture, 5 μM, 37° C.): ≤ 1 min; tyrosine phosphorylation of proteins (≈35 kDa, ≈45 kDa, ≈60-70 kDa) (CHO cells; CHO culture, 5 μM, 37° C., incubation 1 to 30 minutes, control 1,3-cyclic glycerphosphate, FIG. 1): Augmented tyrosine phosphorylation |
| O=P1(O)OCCCO1 [Example 9, 1,3-cyclic propanediol phosphate] |  | triggering axonal outgrowth | total elongation of axon plexus compared to non-treated cells (Rat hippocampal neurons; pyramidal rat embryo hippocampal cells, 5 μM, FIG. 3): 32%; increase in length of the longest axon (main axon) compared to non-treated cells (Rat hippocampal neurons; pyramidal rat embryo hippocampal cells, 5 μM, FIG. 4): about 20%; increase in axonal branch points per cell compared with non-treated cells (Rat hippocampal neurons; rat embryo hippocampal cells, FIG. 5): about 47% |
| CC1COP(=O)(O)OC1 (stereo not shown) [Example 10, 2-methyl 1,3-cyclic propanediol phosphate] |  | triggering axonal outgrowth |  |
| NP1(=O)OCCCO1 [Example 13, 1,3-cyclic propanediol phosphoamidate] | capable of inducing tyrosine phosphorylation | did not induce neuronal differentiation | rescue from NGF deprivation (nerve rescue) (PC12 cells [2]): did rescue them from NGF deprivation |
| CCNP1(=O)OCCCO1 [Example 14, 1,3-cyclic propanediol N-ethyl phosphoamidate] | promoted tyrosine phosphorylation | did not induce neuronal differentiation |  |
| NGF: nerve growth factor, in whose presence PC12 cells differentiate to neuronal cells |  |  | neural outgrowth (PC12 cells [1]): did not exhibit such promotion of neural outgrowth |
